Experimental data published in US20230127898A1, “HEPATITIS B CAPSID ASSEMBLY MODULATORS” (Venatorx Pharmaceuticals, Inc., priority 2020, published 2023).
pEC50: −log10 of the molar value. Read-outs that look alike come from different tables or passages of the source.

Key:
HBV = conditions: Phase 1b clinical trial, 600 mg bid dosing for 29 days; cited from earlier work
[1] = test system: HBV replication in HepAD38 cells; experiment: In vitro antiviral assay: extracellular HBV DNA by QPCR in HepAD38 cells; format: cell-based, HBV (genotype D, serotype ayw); conditions: Hepatitis B virus, 168 h
Description: The anti-HBV activity of the Capsid Assembly Modulators (CAMs) was evaluated in a cell based assay utilizing the human hepatoma cell line HepAD38 (Ladner, S K., et al., 1998). HepAD38 cells were derived from the parental line, HepG2, that were stably transfected with a construct containing an HBV genome (genotype D, serotype ayw) under the control of a tetracycline repressible CMV promoter. Upon removal of tetracycline, viral pre-genomic RNA (pgRNA) and mRNAs are expressed and infectious viral particles are assembled and secreted into the culture medium providing a reliable, robust system to measure multiple steps of the HBV life cycle. Disruption of capsid formation results in reduced levels of DNA-containing virus particles that are released into the culture supernatant. To quantify the effect of CAMs on HBV replication, we developed a sensitive QPCR-based assay that measures extracellular HBV DNA levels upon treatment of HepAD38 cells with various concentrations of test compounds.
HepAD38 cells were maintained in DMEM/F12 medium containing 10% FBS, 400 μg/mL G418 and 0.3 μg/mL tetracycline (tet+media) to maintain repression of HBV replication. To evaluate each compound, HepAD38 cells were seeded into 24-well collagen coated culture plates (Corning BioCoat) at a density of 200,000 cells per well in 1 mL of medium without tetracycline (tet-media) and allowed to adhere overnight at 37° C., 5% CO2 in a humidified incubator. The following day, media was refreshed and a dose range of each compound was prepared by performing 1 log10 serial dilutions in 100% DMSO at 200×the desired assay concentration. Dilutions were then added to the cells resulting in a final dose range of 1 μM to 10 pM and the plates were returned to the incubator. Following 7 days of incubation, culture supernatants were harvested and HBV DNA levels were evaluated by QPCR and compared to the vehicle treated control wells (i.e. DMSO alone).
To quantify HBV DNA levels, cell culture supernatants were diluted 1:10 in sterile, nuclease-free water (Gibco). The diluted supernatants were subsequently added to a PCR master mix containing 1×Roche Light Cycler Master Mix, 0.5 μM forward primer, 0.5 μM reverse primer, 0.2 μM Roche Universal Probe Library Probe 25. The volume was brought to 20 μL with nuclease-free water and amplification of the HBV target sequence was performed using a Roche LightCycler 480 QPCR instrument. PCR extended out to 45 cycles with each cycle consisting of a denaturation step at 95° C. for 10 sec., followed by an annealing step at 60° C. for 10 sec. and a brief extension step at 72° C. for 1 sec.
Extracellular HBV DNA levels, expressed in copies/mL, were determined by comparison to a standard curve (10^2-10^9 copies/mL) using the Roche LightCycler analysis software. These values were subsequently converted to percent inhibition of HBV replication by dividing the HBV DNA levels in the experimental samples with those obtained from the vehicle control (˜1-2×10^5 copies/mL). Potency, expressed as an EC50(the effective concentration required to inhibit 50% of HBV replication), was calculated from the dose-response curve using a 4-parameter non-linear regression analysis (GraphPad Prism). The nucleoside analog inhibitor entecavir was used as a positive control to validate each assay run. The EC50 value of entecavir in the HepAD38 assay was 0.5 nM, as previously reported in the literature.

[2] = In vitro cytotoxicity assay (MTT cell viability) in HepG2 cells; format: cell-based; conditions: human
Description: To evaluate antiviral selectivity, the cytotoxic activity of each compound was determined using a standard cell viability assay performed on the parental HepG2 cell line. Cell viability was determined by measuring the conversion of 3-(4,5-dimethylthiazol-2-yl)-2,5-diphenyltetrazolium bromide (MTT) to the insoluble formazan salt crystal that occurs in live cells. Briefly, HepG2 cells were seeded in 96-well plates at a density of 20,000 cells per well in EMEM+10% FBS (complete growth medium) and allowed to adhere overnight in a 37° C., 5% CO2 humidified incubator. The next day, test agents were prepared by performing 8 half-log10 serial dilutions in 100% DMSO at 200×the final desired concentration in the assay. Compounds were tested over a range of concentrations from 30 μM to 1.0 nM in the assay. HepG2 cells were incubated in the presence of various concentrations of CAMs for 7 days in a 37° C., 5% CO2 humidified incubator. At the completion of the 7-day incubation period, MTT reagent was added to each well and the mixture was incubated for an additional 3-4 hours. At the completion of the incubation period, all wells were aspirated to remove the culture medium. The formazan crystals were solubilized from the cell monolayers with 100% DMSO. Plates were briefly mixed on an orbital shaker and absorbance was measured at 492 nm using a Perkin-Elmer EnVision multi-label plate reader. All absorbance values were converted to a percentage of the signal obtained from the vehicle treated controls. Absorbance values at 492 nm are directly proportional to the number of viable cells present in the sample. A CC50 value (cytotoxic concentration that results in loss of 50% cell viability) was calculated from the dose-response curve by 4-parameter, non-linear regression analysis using the GraphPad Prism software. The positive control compound, staurosporine, reduced the viability of HepG2 cells in a dose-dependent manner (CC50=100 nM).

[3] = 7 days incubation, read-out: Anti-HBV EC50

Structure (SMILES) | reduction in HBV DNA (HBV) | pEC50 [1, 3] | CC50 at 7 days [2] | CC50 at 7 days ([2]; positive control, HepG2 cells, 7 days, MTT, read-out: CC50 (viability of HepG2 cells)) | pEC50 ([1]; positive control, 7 days, read-out: EC50 in the HepAD38 assay)
O=C(Nc1cc(F)c(F)c(F)c1)c1ccc(F)c(S(=O)(=O)N2CCC(O)CC2)c1 [NVR 3-778] | −1.7 log 10 |  |  |  | 
Cc1cc(NC(=O)c2c3c(c(C)n2C)C(=O)NC(C)CC3)ccc1F (centres unmarked) [Example 24, N-(4-fluoro-3-methylphenyl)-2,3,6-trimethyl-4-oxo-2,4,5,6,7,8-hexahydropyrrolo[3,4-c]azepine-1-carboxamide] |  | > 7.30 | > 30000 nM |  | 
Cc1c2c(c(C(=O)Nc3ccnc(F)c3)n1C)CCC(C)(C)NC2=O [Example 7, N-(2-fluoropyridin-4-yl)-2,3,6,6-tetramethyl-4-oxo-2,4,5,6,7,8-hexahydropyrrolo[3,4-c]azepine-1-carboxamide] |  | 6.30 to 7.30 | > 30000 nM |  | 
Cc1c2c(c(C(=O)Nc3cc(F)c(F)c(F)c3)n1C)CCC(C)(C)NC2=O [Example 5, 2,3,6,6-tetramethyl-4-oxo-N-(3,4,5-trifluorophenyl)-2,4,5,6,7,8-hexahydropyrrolo[3,4-c]azepine-1-carboxamide] |  | < 6.00 | > 30000 nM |  | 
Cc1cc(NC(=O)c2c3c(c(C)n2C)C(=O)NC(C)C3C)ccc1F (centres unmarked) [Example 23, N-(4-fluoro-3-methylphenyl)-2,3,6,7-tetramethyl-4-oxo-4,5,6,7-tetrahydro-2H-pyrrolo[3,4-c]pyridine-1-carboxamide] |  | > 7.30 | > 30000 nM |  | 
CN[C@@H]1C[C@H]2O[C@@](C)([C@@H]1OC)n1c3ccccc3c3c4c(c5c6ccccc6n2c5c31)C(=O)NC4 [staurosporine, reference compound] |  |  |  | 100 nM | 
Cc1c2c(c(C(=O)Nc3ccc(F)c(F)c3)n1C)CCC(C)NC2=O (centres unmarked) [Example 48, N-(3,4-difluorophenyl)-2,3,6-trimethyl-4-oxo-2,4,5,6,7,8-hexahydropyrrolo[3,4-c]azepine-1-carboxamide] |  | 6.00 to 6.30 | > 30000 nM |  | 
CCn1c(C)c2c(c1C(=O)Nc1ccc(F)c(C)c1)CCC(C)(C)NC2=O [Example 3, 2-ethyl-N-(4-fluoro-3-methylphenyl)-3,6,6-trimethyl-4-oxo-2,4,5,6,7,8-hexahydropyrrolo[3,4-c]azepine-1-carboxamide] |  | > 7.30 | > 30000 nM |  | 
Cc1cc(NC(=O)c2c3c(c(C)n2C)C(=O)NC(C)(C)CC3)ccc1F [Example 4, N-(4-fluoro-3-methylphenyl)-2,3,6,6-tetramethyl-4-oxo-2,4,5,6,7,8-hexahydropyrrolo[3,4-c]azepine-1-carboxamide] |  | > 7.30 | > 30000 nM |  | 
Cc1c2c(c(C(=O)Nc3ccc(F)c(C(F)F)c3)n1C)CCC(C)(C)NC2=O [Example 12, N-(3-(difluoromethyl)-4-fluorophenyl)-2,3,6,6-tetramethyl-4-oxo-2,4,5,6,7,8-hexahydropyrrolo[3,4-c]azepine-1-carboxamide] |  | > 7.30 | > 30000 nM |  | 
C=C1[C@H](CO)[C@@H](O)C[C@@H]1n1cnc2c(=O)[nH]c(N)nc21 [entecavir, reference compound] |  |  |  |  | 9.30
Cc1c(C(=O)Nc2ccc(F)c(F)c2)c2c(n1C)C(=O)NC(C)(C)CC2 [Example 2, N-(3,4-difluorophenyl)-1,2,6,6-tetramethyl-8-oxo-1,4,5,6,7,8-hexahydropyrrolo[2,3-c]azepine-3-carboxamide] |  | 6.30 to 7.30 | 5000 to 30000 nM |  | 
Cc1cc(NC(=O)c2c3c(C)c(C)[nH]c(=O)c3c(C)n2C)ccc1F [Example 45, N-(4-fluoro-3-methylphenyl)-2,3,6,7-tetramethyl-4-oxo-4,5-dihydro-2H-pyrrolo[3,4-c]pyridine-1-carboxamide] |  | 6.00 to 6.30 | 5000 to 30000 nM |  | 
Cc1cc(F)cc(NC(=O)c2c3c(c(C)n2C)C(=O)NC(C)(C)CC3)c1 [Example 11, N-(3-fluoro-5-methylphenyl)-2,3,6,6-tetramethyl-4-oxo-2,4,5,6,7,8-hexahydropyrrolo[3,4-c]azepine-1-carboxamide] |  | > 7.30 | > 30000 nM |  | 
Cc1cccc(NC(=O)c2c3c(c(C)n2C)C(=O)N[C@@H](C)C3)c1F [Example 47, (S)-N-(2-fluoro-3-methylphenyl)-2,3,6-trimethyl-4-oxo-4,5,6,7-tetrahydro-2H-pyrrolo[3,4-c]pyridine-1-carboxamide] |  | 6.00 to 6.30 | > 30000 nM |  | 
Cc1cc(NC(=O)c2c3c(n(C)c2C)C(=O)NC(C)CC3)ccc1F (centres unmarked) [Example 25, N-(4-fluoro-3-methylphenyl)-1,2,6-trimethyl-8-oxo-1,4,5,6,7,8-hexahydropyrrolo[2,3-c]azepine-3-carboxamide] |  | > 7.30 | > 30000 nM |  | 
Cc1ccc(F)c(NC(=O)c2c3c(c(C)n2C)C(=O)NC(C)(C)CC3)c1 [Example 10, N-(2-fluoro-5-methylphenyl)-2,3,6,6-tetramethyl-4-oxo-2,4,5,6,7,8-hexahydropyrrolo[3,4-c]azepine-1-carboxamide] |  | > 7.30 | > 30000 nM |  | 
Cc1cc(NC(=O)c2c3c(c(C)n2C)C(=O)N[C@@H](C)C3)ccc1F [Example 46, (S)-N-(4-fluoro-3-methylphenyl)-2,3,6-trimethyl-4-oxo-4,5,6,7-tetrahydro-2H-pyrrolo[3,4-c]pyridine-1-carboxamide] |  | > 7.30 | > 30000 nM |  | 
C=C1c2c(c(C)n(C)c2C(=O)Nc2ccc(F)c(C)c2)C(=O)NC1C (centres unmarked) [Example 22, N-(4-fluoro-3-methylphenyl)-2,3,6-trimethyl-7-methylene-4-oxo-4,5,6,7-tetrahydro-2H-pyrrolo[3,4-c]pyridine-1-carboxamide] |  | 6.00 to 6.30 | 500 to 4990 nM |  | 
Cc1c2c(c(C(=O)Nc3cccc(C(F)F)c3)n1C)CCC(C)(C)NC2=O [Example 9, N-(3-(difluoromethyl)phenyl)-2,3,6,6-tetramethyl-4-oxo-2,4,5,6,7,8-hexahydropyrrolo[3,4-c]azepine-1-carboxamide] |  | 6.30 to 7.30 | > 30000 nM |  | 
Cc1cc(NC(=O)c2c3c(c(C)n2C)C(=O)NC(C)(C)CC3)cnc1F [Example 6, N-(6-fluoro-5-methylpyridin-3-yl)-2,3,6,6-tetramethyl-4-oxo-2,4,5,6,7,8-hexahydropyrrolo[3,4-c]azepine-1-carboxamide] |  | < 6.00 | > 30000 nM |  | 
Cc1c2c(c(C(=O)Nc3cccc(Cl)c3)n1C)CCC(C)(C)NC2=O [Example 8, N-(3-chlorophenyl)-2,3,6,6-tetramethyl-4-oxo-2,4,5,6,7,8-hexahydropyrrolo[3,4-c]azepine-1-carboxamide] |  | 6.30 to 7.30 | > 30000 nM |  | 
